In patent publication US12403326B2, “System for corneal cross-linking and correcting vision by using LED contact lens and eye dye” (PHI BIOMED INC., priority 2019, dated 2025):

What was measured:
bovine cornea [1] = assay: Corneal permeability by two-photon image analysis; type: in vitro ADME; settings: dropped on bovine cornea at 5-minute intervals for 30 minutes; two-photon imaging
Method: The hyaluronic acid-Rose Bengal conjugate synthesized in Example 1 was dropped on the bovine cornea at 5-minute intervals for 30 minutes. As a comparative group, a pure Rose Bengal solution was dropped in the same manner as described above.
Afterward, two-photon image analysis was performed by extracting the cornea from the bovine cornea.

bovine cornea [2] = assay: Corneal bonding of wounded cornea, intraocular pressure by tonometer after 532-nm laser; settings: wounded bovine eye; dropped at 5-minute intervals for 30 minutes, 532-nm laser for 30 minutes
Method: After approximately […] wound was made in the bovine cornea, the pressure in the bovine eye was measured using a tonometer. Afterward, each of a hyaluronic acid-Rose Bengal conjugate solution and a Rose Bengal solution was dropped on the wound-induced region at 5-minute intervals for 30 minutes, and a 532-nm laser was irradiated for 30 minutes to induce crosslinking between corneal collagen to bond. Likewise, an intraocular pressure was measured after bonding by a laser using a tonometer.
By comparing the intraocular pressure before and after bonding, it was confirmed whether bonding was formed.

bovine cornea [3] = assay: Corneal thickness from H&E stained corneal tissue after collagen crosslinking; settings: decreased from 1000 μm; dropped for 30 minutes, 532-nm laser for 30 minutes; H&E images
Method: (§1) Hyaluronic acid or a hyaluronic acid-Rose Bengal conjugate were dropped on the bovine cornea at 5-minute intervals for 30 minutes, and a 532-nm laser was irradiated for 30 minutes to induce crosslinking between corneal collagen. Afterward, corneal tissue was fixed with formalin, and stained with H&E, followed by observation under a microscope.

bovine cornea [4] = assay: Corneal strength, Young's modulus using Instron equipment; settings: bovine cornea after collagen crosslinking; untreated Control 1.76
Method: as §1
In addition, the bovine cornea in which collagen crosslinking was induced was extracted, and then the Young's modulus of the cornea was measured using Instron equipment to analyze the strength of the cornea.

`O=C([O-])c1c(Cl)c(Cl)c(Cl)c(Cl)c1-c1c2cc(I)c(=O)c(I)c-2oc2c(I)c([O-])c(I)cc12.[Na+].[Na+]` [Rose Bengal] was tested, and the “depth up to which fluorescence was shown in the cornea (corneal permeability)” value (bovine cornea [1]) was 400 μm, the “increase in maximum intraocular pressure compared to not treated” value (bovine cornea [2]) was “approximately two” and the “corneal thickness after treatment” value (bovine cornea [3]) was 750 μm. The “Young's modulus of the cornea” value (bovine cornea [4]) was 2.75.
